Measurements from ChEMBL document CHEMBL1201862, “PubChem BioAssay data set” (2004).
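A five-concentration, 48-hour dose response in 96-well plates underlies each endpoint, interpolated linearly between surrounding concentrations. GI50: concentration for 50% inhibition of growth.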 The source made the active and inactive calls. Rule as the data show it: active = GI50 up to about 1.1 µM and inactive = higher.

Key:
Test in all cases: DTP human tumour cell line panel, 48 h
SF-539 = system: SF-539
M14 = system: M14
HL-60 = system: HL-60
HOP-62 = system: HOP-62
SNB-19 = system: SNB-19
TK-10 = system: TK-10
CAKI-1 = system: CAKI-1
A498 = system: A498
Malme-3M = system: Malme-3M
UACC-62 = system: UACC-62
SK-OV-3 = system: SK-OV-3
786-0 = system: 786-0
K562 = system: K562
HT-29 = system: HT-29
NCI-H460 = system: NCI-H460
CCRF-CEM = system: CCRF-CEM
IGROV-1 = system: IGROV-1
EKVX = system: EKVX

Compound | GI50 (SF-539) | GI50 (M14) | GI50 (HL-60) | GI50 (HOP-62) | GI50 (SNB-19) | GI50 (TK-10) | GI50 (CAKI-1) | GI50 (A498) | GI50 (Malme-3M) | GI50 (UACC-62) | GI50 (SK-OV-3) | GI50 (786-0) | GI50 (K562) | GI50 (HT-29) | GI50 (NCI-H460) | GI50 (CCRF-CEM) | GI50 (IGROV-1) | GI50 (EKVX)
O=C(CCc1cc(-c2ccccc2)nc(S)n1)N(Cc1ccccc1)Cc1ccccc1 | > 100 µM (inactive) | > 100 µM (inactive) | > 100 µM (inactive) | > 100 µM (inactive) | > 100 µM (inactive) | > 100 µM (inactive) | > 100 µM (inactive) | > 100 µM (inactive) | > 100 µM (inactive) | > 100 µM (inactive) | > 100 µM (inactive) | > 100 µM (inactive) | > 100 µM (inactive) | > 100 µM (inactive) | > 100 µM (inactive) | > 100 µM (inactive) | > 100 µM (inactive) | > 100 µM (inactive)
COC(=O)/C(=C/c1ccc(OC)cc1)C(C(=O)O)=C(C)C | > 100 µM (inactive) | > 100 µM (inactive) | > 100 µM (inactive) | > 100 µM (inactive) | > 100 µM (inactive) | > 100 µM (inactive) | > 100 µM (inactive) | > 100 µM (inactive) | > 100 µM (inactive) | > 100 µM (inactive) | > 100 µM (inactive) | > 100 µM (inactive) | > 100 µM (inactive) | > 100 µM (inactive) | > 100 µM (inactive) | > 100 µM (inactive) | > 100 µM (inactive) | > 100 µM (inactive)
Cc1cc(NS(=O)(=O)c2ccc(Nc3c4ccccc4nc4c(C(=O)N5CCN(CCOS(C)(=O)=O)CC5)cccc34)cc2)no1 | > 100 µM (inactive) | > 100 µM (inactive) | > 100 µM (inactive) | > 100 µM (inactive) | > 100 µM (inactive) | > 100 µM (inactive) | > 100 µM (inactive) | > 100 µM (inactive) | > 100 µM (inactive) | > 100 µM (inactive) | > 100 µM (inactive) | > 100 µM (inactive) | 37.5 µM (inactive) | > 100 µM (inactive) | > 100 µM (inactive) | 43.4 µM (inactive) | > 100 µM (inactive) | 
O=C1CCC(=O)C(C(=O)CCC(=O)Nc2cccc(Cl)c2)C1 (centres undefined) | > 100 µM (inactive) | > 100 µM (inactive) | > 100 µM (inactive) | > 100 µM (inactive) | > 100 µM (inactive) | > 100 µM (inactive) | > 100 µM (inactive) | > 100 µM (inactive) | > 100 µM (inactive) | > 100 µM (inactive) | > 100 µM (inactive) | > 100 µM (inactive) | > 100 µM (inactive) | > 100 µM (inactive) | > 100 µM (inactive) | > 100 µM (inactive) | > 100 µM (inactive) | > 100 µM (inactive)
O=C(OCc1ccccc1)N1N=NC2C3CC(OCc4ccccc4)(OCc4ccccc4)C(O3)C21 (centres undefined) | 32.7 µM (inactive) | 23.6 µM (inactive) | 7.59 µM (inactive) | 24.7 µM (inactive) |  |  | 25.7 µM (inactive) | 41.7 µM (inactive) | 16.1 µM (inactive) | 17.1 µM (inactive) | 99.3 µM (inactive) | 29.1 µM (inactive) | 11 µM (inactive) | 26 µM (inactive) | 39.9 µM (inactive) | 21.3 µM (inactive) | 49.5 µM (inactive) | 
NC(C(=O)O)c1ccc(C(=O)O)cc1 (centres undefined) | > 100 µM (inactive) | > 100 µM (inactive) | > 100 µM (inactive) | > 100 µM (inactive) | > 100 µM (inactive) | > 100 µM (inactive) | > 100 µM (inactive) |  | > 100 µM (inactive) | > 100 µM (inactive) | > 100 µM (inactive) | > 100 µM (inactive) | > 100 µM (inactive) | > 100 µM (inactive) | > 100 µM (inactive) | > 100 µM (inactive) | > 100 µM (inactive) | > 100 µM (inactive)
N#C/C(=C\c1ccc(O)c(O)c1)C(=O)NC1CCC(CC2CCC(NC(=O)/C(C#N)=C/c3ccc(O)c(O)c3)CC2)CC1 (centres undefined) | 0.536 µM (active) | 1.85 µM (inactive) | 0.902 µM (active) | 1.89 µM (inactive) | 3.52 µM (inactive) | 4.02 µM (inactive) | 2.04 µM (inactive) | 4.7 µM (inactive) | 3.65 µM (inactive) | 1.59 µM (inactive) | 3.82 µM (inactive) | 1.27 µM (inactive) | 0.564 µM (active) | 1.32 µM (inactive) | 0.283 µM (active) | 0.293 µM (active) | 1.71 µM (inactive) | 3.48 µM (inactive)
COC(=O)/C(=N/Nc1cccc(Cl)c1)C(C(=O)C(=O)Nc1cccc(Cl)c1C)c1nc2ccccc2nc1C (centres undefined) | 59.2 µM (inactive) | 53.5 µM (inactive) | 29.6 µM (inactive) | 38.3 µM (inactive) |  | > 100 µM (inactive) | 52.6 µM (inactive) | > 100 µM (inactive) | 55 µM (inactive) | 24.6 µM (inactive) | > 100 µM (inactive) | > 100 µM (inactive) | 32.2 µM (inactive) | > 100 µM (inactive) | 48.8 µM (inactive) | 62.5 µM (inactive) | 41.7 µM (inactive) | > 100 µM (inactive)
COc1ccc(C2S/C(=C\c3ccccc3O)C(=O)N2NC(=O)Cc2ccccc2)cc1 (centres undefined) | > 100 µM (inactive) | > 100 µM (inactive) | 60.5 µM (inactive) | > 100 µM (inactive) |  | > 100 µM (inactive) | > 100 µM (inactive) | > 100 µM (inactive) | > 100 µM (inactive) | 78.7 µM (inactive) | > 100 µM (inactive) | > 100 µM (inactive) | 68.5 µM (inactive) | > 100 µM (inactive) | > 100 µM (inactive) | 48.5 µM (inactive) | > 100 µM (inactive) | 
O=C1C(=O)N(c2ccc(Cl)cc2)C(=O)/C(=N/c2cccc3c(=O)[nH][nH]c(=O)c23)C1c1nc2ccccc2o1 (centres undefined) | > 100 µM (inactive) | > 100 µM (inactive) | > 100 µM (inactive) | > 100 µM (inactive) | 84.9 µM (inactive) | > 100 µM (inactive) | > 100 µM (inactive) | > 100 µM (inactive) | > 100 µM (inactive) | > 100 µM (inactive) | > 100 µM (inactive) | > 100 µM (inactive) | > 100 µM (inactive) | > 100 µM (inactive) | > 100 µM (inactive) | > 100 µM (inactive) | > 100 µM (inactive) | > 100 µM (inactive)
CCOC(=O)C1S/C(=N\c2ccccc2)N=C1C (centres undefined) | 73.5 µM (inactive) |  | 59.6 µM (inactive) | > 100 µM (inactive) | > 100 µM (inactive) | > 100 µM (inactive) |  | > 100 µM (inactive) | > 100 µM (inactive) |  |  | 77.8 µM (inactive) | 40.7 µM (inactive) | 30.3 µM (inactive) | 79.1 µM (inactive) |  | > 100 µM (inactive) | 64.1 µM (inactive)
COc1ccc(/C=N/NC(=O)CSc2nc(-c3ccccc3)c(-c3ccccc3)[nH]2)cc1OC | 22.4 µM (inactive) | 17.7 µM (inactive) | 20.3 µM (inactive) | 39.3 µM (inactive) | 34.5 µM (inactive) | 35.4 µM (inactive) | 33.1 µM (inactive) | 26.6 µM (inactive) | 19.5 µM (inactive) | 23.5 µM (inactive) | 26.4 µM (inactive) | 28.7 µM (inactive) |  | 29.8 µM (inactive) | 28.6 µM (inactive) | 34.7 µM (inactive) | 28.8 µM (inactive) | 31 µM (inactive)
CCCOP1(=O)C=C(O)C(Cl)=C(C)C1 (centres undefined) | > 100 µM (inactive) | > 100 µM (inactive) | > 100 µM (inactive) | > 100 µM (inactive) | > 100 µM (inactive) | > 100 µM (inactive) |  |  | > 100 µM (inactive) | > 100 µM (inactive) | > 100 µM (inactive) | > 100 µM (inactive) | > 100 µM (inactive) | > 100 µM (inactive) | > 100 µM (inactive) | > 100 µM (inactive) | > 100 µM (inactive) | > 100 µM (inactive)
CCOC(=O)CC1COc2ccc3c(c21)OCO3 (centres undefined) | > 100 µM (inactive) | > 100 µM (inactive) | > 100 µM (inactive) | > 100 µM (inactive) | > 100 µM (inactive) | > 100 µM (inactive) |  | > 100 µM (inactive) | > 100 µM (inactive) | > 100 µM (inactive) | > 100 µM (inactive) | > 100 µM (inactive) | > 100 µM (inactive) | > 100 µM (inactive) | > 100 µM (inactive) | > 100 µM (inactive) | > 100 µM (inactive) | > 100 µM (inactive)
COC1CC(OS(=O)(=O)c2ccc([N+](=O)[O-])cc2)C(OC(=O)c2ccccc2)C(C)O1 (centres undefined) | 54.6 µM (inactive) | > 100 µM (inactive) | > 100 µM (inactive) | > 100 µM (inactive) | > 100 µM (inactive) | > 100 µM (inactive) | > 100 µM (inactive) | 88.7 µM (inactive) | > 100 µM (inactive) | > 100 µM (inactive) |  | 32.2 µM (inactive) | > 100 µM (inactive) | > 100 µM (inactive) | > 100 µM (inactive) | > 100 µM (inactive) | > 100 µM (inactive) | 
COc1ccc(C2NC3=C(CCCC3)N2)cc1 | 87.5 µM (inactive) | 37.4 µM (inactive) | 29 µM (inactive) | > 100 µM (inactive) |  | > 100 µM (inactive) |  | 79.4 µM (inactive) | 40.4 µM (inactive) |  | 42.6 µM (inactive) | 41.1 µM (inactive) |  | 42.9 µM (inactive) | 45 µM (inactive) | > 100 µM (inactive) | > 100 µM (inactive) | 
